Laboratory results as given in the supplement of paper PMC10307832.

Columns and labels:
Experiment in all cases: relative viability (nuclei count vs DMSO), 5 days (fraction); higher = more cells survive
Vismodegib + Alpelisib = compound: CS(=O)(=O)c1ccc(C(=O)Nc2ccc(Cl)c(-c3ccccn3)c2)c(Cl)c1 [Vismodegib] + Cc1nc(NC(=O)N2CCC[C@H]2C(N)=O)sc1-c1ccnc(C(C)(C)C(F)(F)F)c1 [Alpelisib] (partner 2 µM)
In short: (§1)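 Lung cancer cell lines were pin-tool dosed in 1536-well plates on the day after seeding, with either a lone drug or a fixed anchor-drug dose plus five library-drug doses (not always all listed) in √10 steps. Nuclei were counted on 4× images after 5 days. Relative viability is the ratio of treated-well to vehicle-well nuclei counts, with each value a median of duplicate plates.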

VE-821 + Foretinib = compound: CS(=O)(=O)c1ccc(-c2cnc(N)c(C(=O)Nc3ccccc3)n2)cc1 [VE-821] + COc1cc2c(Oc3ccc(NC(=O)C4(C(=O)Nc5ccc(F)cc5)CC4)cc3F)ccnc2cc1OCCCN1CCOCC1 [Foretinib] (partner 0.25 µM)
In short: as §1

Ruxolitinib + Trametinib = compound: N#CC[C@H](C1CCCC1)n1cc(-c2ncnc3[nH]ccc23)cn1 [Ruxolitinib] + CC(=O)Nc1cccc(-n2c(=O)n(C3CC3)c(=O)c3c(Nc4ccc(I)cc4F)n(C)c(=O)c(C)c32)c1 [Trametinib] (partner 0.02 µM)
In short: as §1

Vismodegib + Navitoclax = compound: CS(=O)(=O)c1ccc(C(=O)Nc2ccc(Cl)c(-c3ccccn3)c2)c(Cl)c1 [Vismodegib] + CC1(C)CCC(c2ccc(Cl)cc2)=C(CN2CCN(c3ccc(C(=O)NS(=O)(=O)c4ccc(N[C@H](CCN5CCOCC5)CSc5ccccc5)c(S(=O)(=O)C(F)(F)F)c4)cc3)CC2)C1 [Navitoclax] (partner 0.5 µM)
In short: as §1

| Cell Line | relative viability (Vismodegib + Alpelisib; first compound 0.08 µM) | relative viability (Vismodegib + Alpelisib; first compound 0.253 µM) | relative viability (Vismodegib + Alpelisib; first compound 0.8 µM) | relative viability (Vismodegib + Alpelisib; first compound 2.53 µM) | relative viability (Vismodegib + Alpelisib; first compound 8 µM) | relative viability (VE-821 + Foretinib; first compound 0.08 µM) | relative viability (VE-821 + Foretinib; first compound 0.253 µM) | relative viability (VE-821 + Foretinib; first compound 0.8 µM) | relative viability (VE-821 + Foretinib; first compound 2.53 µM) | relative viability (VE-821 + Foretinib; first compound 8 µM) | relative viability (Ruxolitinib + Trametinib; first compound 0.08 µM) | relative viability (Ruxolitinib + Trametinib; first compound 0.253 µM) | relative viability (Ruxolitinib + Trametinib; first compound 0.8 µM) | relative viability (Ruxolitinib + Trametinib; first compound 2.53 µM) | relative viability (Ruxolitinib + Trametinib; first compound 8 µM) | relative viability (Vismodegib + Navitoclax; first compound 0.08 µM) | relative viability (Vismodegib + Navitoclax; first compound 0.253 µM) | relative viability (Vismodegib + Navitoclax; first compound 0.8 µM) | relative viability (Vismodegib + Navitoclax; first compound 2.53 µM) | relative viability (Vismodegib + Navitoclax; first compound 8 µM) |
| --- | --- | --- | --- | --- | --- | --- | --- | --- | --- | --- | --- | --- | --- | --- | --- | --- | --- | --- | --- | --- |
| 201T | 1.03 | 0.996 | 0.994 | 1.07 | 0.984 | 1.09 | 1.17 | 0.784 | 0.968 | 0.6 | 0.753 | 0.803 | 0.927 | 0.907 | 0.922 | 1.23 | 1.18 | 1.15 | 1.23 | 1.17 |
| A549 | 0.658 | 0.673 | 0.73 | 0.734 | 0.69 | 0.996 | 0.93 | 0.858 | 0.861 | 0.713 | – | – | – | – | – | 1.02 | 1.13 | 1.28 | 1.18 | 1.23 |
| A-427 | 1.02 | 1.04 | 0.965 | 1.09 | 1.1 | 1.34 | 0.97 | 0.991 | 1.05 | 0.561 | 0.808 | 0.757 | 0.96 | 0.636 | 0.728 | 0.988 | 0.897 | 0.889 | 1 | 0.976 |
| ABC-1 | 0.994 | 1.13 | 1.08 | 0.83 | 0.949 | 1.41 | 0.877 | 0.859 | 1.01 | 0.756 | – | – | – | – | – | – | – | – | – | – |
| BEN | 1.03 | 0.988 | 0.863 | 0.984 | 1.02 | 0.685 | 0.574 | 0.623 | 0.581 | 0.76 | 1.01 | 1.01 | 1.13 | 0.99 | 1.35 | 0.0646 | 0.062 | 0.0698 | 0.0746 | 0.0684 |
| CAL-12T | 1.12 | 1.02 | 1.37 | 1.2 | 1.3 | 1.27 | 1.09 | 1.01 | 0.976 | 0.92 | 0.341 | 0.375 | 0.376 | 0.241 | 0.31 | 1.21 | 0.965 | 1.33 | 1.23 | 1.24 |
| COR-L23 | 0.77 | 0.672 | 0.689 | 0.756 | 0.819 | 1.09 | 0.974 | 0.915 | 1.27 | 0.917 | 0.766 | 0.616 | 0.878 | 0.276 | 0.508 | 1.02 | 1.03 | 0.959 | 0.951 | 1.14 |
| COR-L 105 | 0.832 | 0.882 | 0.847 | 0.839 | 0.868 | 1.06 | 1.15 | 0.937 | 0.731 | 0.759 | – | 0.472 | 0.424 | 0.381 | 0.432 | 0.733 | 0.721 | 1.02 | 0.777 | 0.781 |
| Calu-6 | 0.97 | 0.976 | 0.901 | 1.09 | 0.979 | 0.94 | 0.932 | 0.821 | 0.767 | 0.753 | – | – | – | – | – | 0.712 | 0.781 | 0.817 | 0.877 | 0.845 |
| ChaGo-K-1 | – | – | – | – | – | 0.988 | 0.971 | 0.814 | 1 | 0.734 | 0.885 | 0.887 | 0.828 | 0.803 | 0.765 | 0.994 | 1.14 | 0.956 | 0.977 | 0.986 |
| EBC-1 | 0.838 | 0.891 | 0.876 | 0.789 | 0.891 | 0.0973 | 0.103 | 0.0999 | 0.104 | 0.102 | – | – | – | – | – | 0.412 | 0.39 | 0.436 | 0.397 | 0.643 |
| EKVX | 0.946 | 0.974 | 0.907 | 0.871 | 0.875 | 0.801 | 0.673 | 0.574 | 0.874 | 0.582 | – | 0.318 | 0.348 | 0.265 | 0.361 | 0.664 | 0.901 | 0.999 | 0.899 | 0.914 |
| EMC-BAC-2 | 0.716 | 0.763 | 0.819 | 0.732 | 0.754 | 1.05 | 0.944 | 0.856 | 1.05 | 0.949 | 0.886 | 0.806 | 1.08 | 0.768 | 0.948 | 1.11 | 1.15 | 1.23 | 1.13 | 1.19 |
| EPLC-272H | 0.894 | 0.888 | 0.872 | 1 | 0.931 | 0.803 | 0.747 | 0.804 | 0.692 | 0.341 | 0.322 | 0.334 | 0.41 | 0.286 | 0.337 | 1.01 | 1.2 | 1.09 | 1.09 | 1.09 |
| H3255 | 0.75 | 0.676 | 0.764 | 0.752 | 0.543 | 0.883 | 0.843 | 0.913 | 0.91 | 0.857 | – | 0.548 | 0.725 | 0.465 | 0.648 | 0.614 | 0.441 | 0.462 | 0.439 | 0.518 |
